Laboratory results reported in patent publication US20080200499A1, “Selective Insecticides and/or Acaricides Based on Substituted Cyclic Dicarbonyl Compounds and Safeners” (priority 2004, published 2008).

Key:
Type in all cases: in vivo
Maize = assay: Greenhouse trial with safener after seed dressing (seed trays), maize; settings: evaluation after 14 d
Description: In an agate mortar, the amount of safener and the amount of active compound required to prepare a 20 WS formulation are dissolved in acetone, and the appropriate amount of formulation without active compounds (which is actually used to prepare Gaucho 70 WS) is added. The mixture is allowed to dry until only a small amount of residual moisture can be detected. Using a spatula, the substance is carefully detached from the side of the mortar, and the substance is comminuted in the mortar until it has dried. An amount of the laboratory formulation thus prepared which is appropriate for the amount of seed to be dressed is filled into beakers of a size big enough so that, during dressing, they are at most one third filled with seed. A sufficient amount of water (depending on the properties of the seed surface) is then added. The seed is then filled into these beakers containing formulation and water and dressed on a test tube shaker with the aid of a spatula or glass rod. Once the formulation is distributed on the seed as uniformly as possible, the seed is allowed to dry in a fume hood. 3 l trays made of plastic (20×20×5 cm) are filled with sandy loam. Using a punch, the soil is firmed such that the deposition depth required for the crop in question is achieved. 20 seeds/seed tray are placed at regular intervals with the aid of a pair of tweezers impressed into the soil using the abovementioned punch. The test containers are placed in a greenhouse and, using the punch, the surface is once again firmed gently. In addition to the test substances, an untreated control is tested, too. Per variant, there are at least 2 trays. The trays are watered and covered with a film until the plants have emerged. After emergence, the trays are watered 2 times a day. Evaluation is carried out by counting the plants that have emerged and by assessing damage, (in %) over an interval of 5-14 days after sowing in comparison to the untreated control.

[1] = tested on: bird cherry-oat aphid (Rhopalosiphum padi); assay: Safener test after spraying, variant a: kill of aphids on winter barley; settings: spray
Description: (§1) To produce a suitable preparation of active compound, 1 part by weight of active compound is mixed with the stated amounts of solvent and emulsifier, and the concentrate is diluted with tap water to the desired concentration. The desired amount of safener (in the case of mefenpyr-diethyl as WP 20) is mixed into the water used for dilution. Furthermore, 2 g of ai/l of rapeseed oil methyl ester 500 EW are added. Leaves of winter barley at the 2-leaf stage which are infested by the bird cherry-oat aphid (Rhopalosiphum padi) are treated with the desired active compound and safener concentrations using a spray boom, the water application rate being 300 l/ha. Per variant, the test is carried out at least twice. Evaluation is carried out after 7 d and/or 14 d by assessing the plant damage in %, where both the treated plant and new growth and the kill of the grain aphids in % compared to the untreated control are evaluated. 100% damage means that the plant has died, and 0% means no damage. 100% effect on the grain aphids means that all aphids have been killed; 0% means that none of the aphids have been killed.

[2] = tested on: bird cherry-oat aphid (Rhopalosiphum padi); assay: Safener test after spraying, variant b: kill of aphids on winter barley; settings: spray
Description: as §1
(§2) In variant b), the active compound is applied as an SC formulation in the desired concentrations as in variant a) in a mixture with mefenpyr-diethyl WP 20 and 2 g of ai/l rapeseed oil methyl ester 500 EW. Practice and evaluation is carried out as stated in variant a).

Summer barley = assay: Greenhouse trial with safener after seed dressing (seed trays), summer barley; settings: evaluation after 14 d
Description: (§3) In an agate mortar, the amount of safener and the amount of active compound required to prepare a 20 WS formulation are dissolved in acetone, and the appropriate amount of formulation without active compounds (which is actually used to prepare Gaucho 70 WS) is added. The mixture is allowed to dry until only a small amount of residual moisture can be detected. Using a spatula, the substance is carefully detached from the side of the mortar, and the substance is comminuted in the mortar until it has dried. An amount of the laboratory formulation thus prepared which is appropriate for the amount of seed to be dressed is filled into beakers of a size big enough so that, during dressing, they are at most one third filled with seed. A sufficient amount of water (depending on the properties of the seed surface) is then added. The seed is then filled into these beakers containing formulation and water and dressed on a test tube shaker with the aid of a spatula or glass rod. Once the formulation is distributed on the seed as uniformly as possible, the seed is allowed to dry in a fume hood.
(§4) 3 l trays made of plastic (20×20×5 cm) are filled with sandy loam. Using a punch, the soil is firmed such that the deposition depth required for the crop in question is achieved. 20 seeds/seed tray are placed at regular intervals with the aid of a pair of tweezers impressed into the soil using the abovementioned punch. The test containers are placed in a greenhouse and, using the punch, the surface is once again firmed gently. In addition to the test substances, an untreated control is tested, too. Per variant, there are at least 2 trays. The trays are watered and covered with a film until the plants have emerged. After emergence, the trays are watered 2 times a day. Evaluation is carried out by counting the plants that have emerged and by assessing damage, (in %) over an interval of 5-14 days after sowing in comparison to the untreated control.

Winter barley [3] = assay: Safener test after spraying, variant a: plant damage
Description: as §1

Winter barley [4] = assay: Greenhouse trial with safener after seed dressing (seed trays), winter barley; settings: evaluation after 14 d
Description: as §3, §4

Winter barley [5] = assay: Safener test after spraying, variant b: plant damage
Description: as §1, §2

[6] = tested on: cotton aphid (Aphis gossypii); assay: Aphis gossypii test (spray application); settings: cotton plants
Description: (§5) The expected activity of a given combination of two active compounds can be calculated according to S. R. Colby, Weeds 15 (1967), 20-22 as follows:
(§6) if • X is the kill rate when employing active compound A at an application rate of m g/ha or in a concentration of m ppm, • Y is the kill rate when employing active compound B at an application rate of n g/ha or in a concentration of n ppm and • E is the kill rate when using the active compounds A and B at application rates of m and n g/ha or in a concentration of m and n ppm, then
(§7) If the actual activity exceeds the calculated value, the activity of the combination is superadditive, i.e. a synergistic effect is present. In this case, the actually observed kill rate must exceed the value calculated using the above formula for the expected kill rate (E).
(§8) To prepare a suitable application solution, 1 part by weight of formulation is mixed with the appropriate amount of water and the adjuvant and the concentrate is diluted with water to the desired concentration.
Cotton plants (Gossypium herbaceum) which are heavily infested by the cotton aphid (Aphis gossypii) are sprayed to runoff point with the desired concentration of the application solution.
(§9) After the desired period of time, the kill in % is determined. 100% means that all aphids have been killed; 0% means that none of the aphids have been killed. The determined kill rates are entered in Colby's formula.

[7] = tested on: green peach-aphid (Myzus persicae); assay: Myzus persicae test (spray application); settings: bell pepper plants
Description: as §5, §6, §7, §8
Bell pepper plants (Capsicum sativum) which are heavily infested by the green peach-aphid (Myzus persicae) are sprayed to runoff point with the desired concentration of the application solution.
as §9

[8] = tested on: grain aphids (Metopolophium dirhodum); assay: Metopolophium dirhodum test (spray application); settings: barley plants
Description: as §5, §6, §7, §8
Barley plants (Hordeum vulgare) which are heavily infested by a grain aphids (Metopolophium dirhodum) are sprayed to runoff point with the desired concentration of the application solution.
as §9

[9] = variant a, spray, 200 g of ai/ha
[10] = variant b, spray, 200 g of ai/ha
[11] = variant b, spray, 200 g of ai/ha, 14 d

## CCOC(=O)C1=NOC(c2ccccc2)(c2ccccc2)C1 [Isoxadifen-ethyl, ethyl 4,5-dihydro-5,5-diphenyl-3-isoxazolecarboxylate]
Maize; 1 g of ai/kg of seed
  % damage: 0%
  plants that have emerged in %: 96%

## CCOC(=O)C1=NN(c2ccc(Cl)cc2Cl)C(C)(C(=O)OCC)C1 (centres unmarked) [Mefenpyr-diethyl, diethyl 1-(2,4-dichlorophenyl)-4,5-dihydro-5-methyl-1H-pyrazole-3,5-dicarboxylate]
[1]; 200 g of ai/ha
  Kill (%) 7 d: 0%
  Kill (%) 14 d: 0%
[2]; 200 g of ai/ha
  Kill (%) 7 d: 0%
  Kill (%) 14 d: 0%
Summer barley; 1 g of ai/kg of seed
  % damage: 0%
  plants that have emerged in %: 75%
Winter barley [3]; [9]
  Damage (%) 7 d: 0%
  Damage to new growth (%) 7 d: 0%
  Damage (%) 14 d: 0%
  Damage to new growth (%) 14 d: 0%
Winter barley [4]; 1 g of ai/kg of seed
  % damage: 0%
  plants that have emerged in %: 83%
Winter barley [5]; [10]
  Damage (%) 7 d: 0%
  Damage to new growth (%) 7 d: 0%
Winter barley [5]; [11]
  Damage (%) 14 d: 0%
  Damage to new growth (%) 14 d: 0%

## CC1(C)OC(c2ccco2)CN1C(=O)C(Cl)Cl (centres unmarked) [Furilazole a.i., 3-dichloroacetyl-5-(2-furanyl)-2,2-dimethyloxazolidine]
[6]; 100 ppm
  Kill rate in % after 3 d: 0%
[7]; 100 ppm
  Kill rate in % after 7 d: 0%
[8]; 100 ppm
  Kill rate in % after 7 d: 0%

## Clc1cc(Cl)nc(-c2ccccc2)n1 [Fenclorim a.i., 4,6-dichloro-2-phenylpyrimidine]
[6]; 100 ppm
  Kill rate in % after 3 d: 0%
  Kill rate in % after 7 d: 0%
[7]; 100 ppm
  Kill rate in % after 7 d: 0%

## COC1CCC2(CC1)NC(=O)C(Cl)(c1c(C)cc(Br)cc1C)C2=O (centres unmarked) [Example I-1-2]
[1]; 40 g of ai/ha
  Kill (%) 7 d: 100%
  Kill (%) 14 d: 78%
[2]; 8 g of ai/ha
  Kill (%) 7 d: 73%
  Kill (%) 14 d: 33%
[2]; 40 g of ai/ha
  Kill (%) 7 d: 100%
  Kill (%) 14 d: 70%
Winter barley [3]; winter barley, in vivo
  Damage (%) 7 d: 40%
  Damage to new growth (%) 7 d: 70%
  Damage (%) 14 d: 50%
  Damage to new growth (%) 14 d: 80%
[6]; 20 ppm
  Kill rate in % after 3 d: 0%
[7]; 20 ppm
  Kill rate in % after 7 d: 25%
Winter barley [5]; winter barley, in vivo
  Damage (%) 7 d: 40%
  Damage to new growth (%) 7 d: 100%
Winter barley [5]; winter barley, in vivo, 14 d
  Damage (%) 14 d: 60%
[8]; 20 ppm
  Kill rate in % after 7 d: 45%

## Cc1cc(Cl)cc(C)c1C1(Cl)C(=O)NC2(CCOCC2)C1=O (centres unmarked) [Example I-1-1]
Summer barley; 2 g of ai/kg of seed
  % damage: 100%
  plants that have emerged in %: 0%
[6]; 20 ppm
  Kill rate in % after 7 d: 20%
Winter barley [4]; 2 g of ai/kg of seed
  % damage: 100%
  plants that have emerged in %: 0%
Maize; 2 g of ai/kg of seed
  % damage: 95%
  plants that have emerged in %: 71%

## CCCCCC(C)OC(=O)COc1ccc(Cl)c2cccnc12 (centres unmarked) [Cloquintocet-mexyl a.i., 1-methylhexyl 5-chloroquinolin-8-oxyacetate]
[8]; 100 ppm
  Kill rate in % after 7 d: 0%

## C=CCN(CC=C)C(=O)C(Cl)Cl [Dichlormid a.i., 2,2-dichloro-N,N-di-2-propenylacetamide]
[6]; 100 ppm
  Kill rate in % after 7 d: 0%
[7]; 100 ppm
  Kill rate in % after 7 d: 0%
